According to ChEMBL document CHEMBL1201862, “PubChem BioAssay data set” (2004):
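Method: 48-hour compound exposure of cells in 96-well plates, five concentrations, linear interpolation of endpoints. Abbreviation: GI50, concentration required for 50% inhibition of growth.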 Calls of active or inactive are those of the source. Cut-off read from the data, not from the text of the source: active = GI50 up to about 1.1 µM and inactive = higher.

Legend:
Assay in all cases: growth of human tumour cells (NCI), 48 h
A498 = test system: A498
CAKI-1 = test system: CAKI-1
CCRF-CEM = test system: CCRF-CEM
DU-145 = test system: DU-145
HCT-15 = test system: HCT-15
HT-29 = test system: HT-29
KM12 = test system: KM12
LOX IMVI = test system: LOX IMVI
MDA-MB-435 = test system: MDA-MB-435
MDA-N = test system: MDA-N
Malme-3M = test system: Malme-3M
NCI-H522 = test system: NCI-H522
OVCAR-5 = test system: OVCAR-5
SF-539 = test system: SF-539
SK-MEL-28 = test system: SK-MEL-28
SK-MEL-5 = test system: SK-MEL-5
SN12C = test system: SN12C
U-251 = test system: U-251
UACC-62 = test system: UACC-62
UO-31 = test system: UO-31

SMILES | GI50 (A498) | GI50 (CAKI-1) | GI50 (CCRF-CEM) | GI50 (DU-145) | GI50 (HCT-15) [µM] | GI50 (HT-29) | GI50 (KM12) | GI50 (LOX IMVI) | GI50 (MDA-MB-435) | GI50 (MDA-N) | GI50 (Malme-3M) | GI50 (NCI-H522) | GI50 (OVCAR-5) | GI50 (SF-539) | GI50 (SK-MEL-28) | GI50 (SK-MEL-5) | GI50 (SN12C) | GI50 (U-251) | GI50 (UACC-62) | GI50 (UO-31)
C[C@H]1CC[C@H](NC(=O)N(CCCl)N=O)CC1 | 53 µM (inactive) | 27.2 µM (inactive) | 13.2 µM (inactive) | 82.4 µM (inactive) | 40.6 | 51.2 µM (inactive) | 59.3 µM (inactive) | 13 µM (inactive) | 28.1 µM (inactive) | 44.8 µM (inactive) | 47.9 µM (inactive) | 40 µM (inactive) | 55.7 µM (inactive) | 27.1 µM (inactive) | 46.2 µM (inactive) | 40.4 µM (inactive) | 40.4 µM (inactive) | 26.7 µM (inactive) | 14.3 µM (inactive) | 49.9 µM (inactive)
CCc1nc(N)nc(N)c1-c1ccc(Cl)cc1 [PYRIMETHAMINE] | 13.3 µM (inactive) | 71.9 µM (inactive) | 3.33 µM (inactive) | 18.7 µM (inactive) | 3.94 | 4.25 µM (inactive) | 11.6 µM (inactive) | 6.19 µM (inactive) | 8.36 µM (inactive) | 4.83 µM (inactive) | 18.2 µM (inactive) | 22.5 µM (inactive) | > 60 µM (inactive) | 20.7 µM (inactive) | > 66.7 µM (inactive) | 2.48 µM (inactive) | 3.33 µM (inactive) | 9.75 µM (inactive) | 4.72 µM (inactive) | 16.4 µM (inactive)
COc1ccc2[nH]c(S(=O)(=O)N3CC(CCl)c4ccc(N)cc43)cc2c1 (stereo not given) | 11.2 µM (inactive) | 0.0254 µM (active) | 0.362 µM (active) | 0.429 µM (active) | < 0.0254 | 1.65 µM (inactive) | < 0.01 µM (active) | < 0.0229 µM (active) | < 0.01 µM (active) | < 0.01 µM (active) | 0.0984 µM (active) | < 0.01 µM (active) | 10 µM (inactive) | 0.0478 µM (active) | 13 µM (inactive) | < 0.0157 µM (active) | 0.32 µM (active) | 0.4 µM (active) | 0.0773 µM (active) | 0.0403 µM (active)
CN(C)c1cccc2c(S(=O)(=O)NCCCNCCN)cccc12 | 29.6 µM (inactive) | > 100 µM (inactive) | 22.3 µM (inactive) | > 100 µM (inactive) | > 100 | 25.9 µM (inactive) | 67 µM (inactive) | 66.8 µM (inactive) | 27.4 µM (inactive) | 26.2 µM (inactive) | 61.5 µM (inactive) | 48.1 µM (inactive) | 38.1 µM (inactive) | 21.3 µM (inactive) | 46.1 µM (inactive) | 20.8 µM (inactive) | 78 µM (inactive) | 29 µM (inactive) | 51.2 µM (inactive) | 56.9 µM (inactive)
CC(C)c1ccc(O)c(=O)c(O)c1.CC(C)c1ccc(O)c(=O)cc1.CC(C)c1cccc(=O)c(O)c1.CC(C)c1ccccc(=O)c1O | 2.06 µM (inactive) | 1.36 µM (inactive) | 0.21 µM (active) | 1.42 µM (inactive) | 0.198 | 0.509 µM (active) | 2.87 µM (inactive) | 0.76 µM (active) | 2.1 µM (inactive) | 3.32 µM (inactive) | 1.43 µM (inactive) | 0.456 µM (active) | 3.11 µM (inactive) | 0.598 µM (active) | 2.05 µM (inactive) | 1.22 µM (inactive) | 0.998 µM (active) | 0.491 µM (active) | 0.787 µM (active) | 0.841 µM (active)
N#CSC#CCCC#CSC#N | 20 µM (inactive) | 19 µM (inactive) | 3.1 µM (inactive) | 15 µM (inactive) | 18.2 | 21.3 µM (inactive) | 17.7 µM (inactive) | 18.7 µM (inactive) | 23 µM (inactive) | 18.2 µM (inactive) | 17.9 µM (inactive) | 2.2 µM (inactive) | 20.6 µM (inactive) | 19.5 µM (inactive) | 29.4 µM (inactive) | 18.2 µM (inactive) | 17.7 µM (inactive) | 16.9 µM (inactive) | 17 µM (inactive) | 18 µM (inactive)
Cc1cc(C)c(S(=O)(=O)N[C@@H](/C=C(\Br)CO)C(C)C)c(C)c1 | 20.7 µM (inactive) | 33.2 µM (inactive) | 27.3 µM (inactive) | 34.5 µM (inactive) | 37.8 | 31 µM (inactive) | 33.6 µM (inactive) | 18.7 µM (inactive) | 17.3 µM (inactive) | 26.1 µM (inactive) | 21.5 µM (inactive) | 17.7 µM (inactive) | 34.3 µM (inactive) | 31.8 µM (inactive) | 24.9 µM (inactive) | 15.8 µM (inactive) | 16.8 µM (inactive) | 25.4 µM (inactive) | 13.2 µM (inactive) | 33 µM (inactive)
